Measured values published in patent publication US12043600B2, “Microbiocidal compounds” (SYNGENTA CROP PROTECTION AG, priority 2018, dated 2024).
Like-named read-outs stand apart in the source and are kept apart here.

How the values were obtained:
Alternaria solani = experiment: Alternaria solani/Tomato/Leaf Disc (Early Blight); assay type: in vivo; details: foliar, tomato leaf disc, compared to untreated control
Method in brief: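 Tomato cv. Baby leaf disks on agar were sprayed with diluted formulated compound and inoculated with spores 2 days later. Incubation at 23° C./21° C. day/night, 80% rh, 12/12 h light; percent disease control versus untreated scored 5-7 days after application.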

Plasmopara viticola = experiment: whole plant or invertebrate; assay type: in vivo; details: foliar, read-out: control of Plasmopara viticola
[1] = system: Magnaporthe grisea (Pyricularia oryzae); experiment: whole plant or invertebrate; assay type: in vivo; details: foliar, read-out: control of Magnaporthe grisea
[2] = system: Botryotinia fuckeliana (Botrytis cinerea); experiment: Botryotinia fuckeliana (Botrytis cinerea)/Liquid Culture (Gray Mould); assay type: cell-based; details: liquid culture, compared to untreated control
Description: Conidia of the fungus from cryogenic storage are directly mixed into nutrient broth (Vogels broth). After placing a (DMSO) solution of test compound into a microtiter plate (96-well format), the nutrient broth containing the fungal spores is added.

Phytophthora infestans = experiment: whole plant or invertebrate; assay type: in vivo; details: in Solanum lycopersicum, foliar, read-out: control of Phytophthora infestans
[3] = system: Puccinia recondita f. sp. tritici; experiment: Puccinia recondita f. sp. tritici/Wheat/Leaf Disc Preventative (Brown Rust); assay type: in vivo; details: foliar, 200 ppm, wheat leaf disc preventative, compared to untreated control, read-out: control of Puccinia recondita f. sp. tritici
Phakopsora pachyrhizi = experiment: Phakopsora pachyrhizi/Soybean/Preventative (Soybean Rust); assay type: in vivo; details: 288 h
[4] = system: Thanatephorus cucumeris (Rhizoctonia solani); experiment: Thanatephorus cucumeris (Rhizoctonia solani)/Liquid Culture (Foot Rot, Damping-Off); assay type: cell-based; details: liquid culture, compared to untreated control
Description: Mycelia fragments of a newly grown liquid culture of the fungus are directly mixed into nutrient broth (PDB potato dextrose broth). After placing a (DMSO) solution of the test compounds into a microtiter plate (96-well format), the nutrient broth containing the fungal material is added.

[5] = system: Mycosphaerella graminicola (Septoria tritici); experiment: Mycosphaerella graminicola (Septoria tritici)/Liquid Culture (Septoria Blotch); assay type: cell-based; details: Zymoseptoria tritici; 20 ppm; liquid culture; compared to untreated control
Method in brief: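 Conidia from cryogenic storage mixed into potato dextrose broth and added to microtiter wells already holding DMSO solutions of test compound. Activity expressed as percentage disease control.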

[6] = system: Glomerella lagenarium (Colletotrichum lagenarium); experiment: Glomerella lagenarium (Colletotrichum lagenarium)/Liquid Culture (Anthracnose); assay type: cell-based; details: Colletotrichum orbiculare, liquid culture, compared to untreated control
[7] = system: Monographella nivalis (Microdochium nivale); experiment: Monographella nivalis (Microdochium nivale)/Liquid Culture (Foot Rot Cereals); assay type: cell-based; details: liquid culture, compared to untreated control
Method in brief: (§1)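 First, the test compound in DMSO is placed in the wells. Next, potato dextrose broth seeded with conidia taken straight from cryogenic storage is added, and the culture is left to grow.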

[8] = system: Phaeosphaeria nodorum (Septoria nodorum); experiment: Phaeosphaeria nodorum (Septoria nodorum)/Wheat/Leaf Disc Preventative (Glume Blotch); assay type: in vivo; details: Parastagonospora nodorum, foliar, wheat leaf disc preventative, compared to untreated control
Method in brief: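 Wheat cv. Kanzler leaf discs on agar were sprayed with formulated compound diluted in water and inoculated with P. nodorum spores 2 days later. Discs kept at 20 °C, 75% rh, 12 h light/dark; percent disease control versus untreated scored 5–7 days after application.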

[9] = system: Puccinia recondita f. sp. tritici; experiment: Puccinia recondita f. sp. tritici/Wheat/Leaf Disc Curative (Brown Rust); assay type: in vivo; details: foliar, wheat leaf disc curative, compared to untreated control
Method in brief: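 Curative leaf-disc test on wheat cv. Kanzler segments on agar, spore-inoculated and kept dark at 19° C, 75% rh; formulated compound in water applied 1 day after inoculation. Incubated at 19° C, 75% rh, 12 h light/12 h dark; percent disease control versus untreated scored 6-8 days after application.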

[10] = system: Mycosphaerella arachidis (Cercospora arachidicola); experiment: Mycosphaerella arachidis (Cercospora arachidicola)/Liquid Culture (Early Leaf Spot); assay type: cell-based; details: liquid culture, compared to untreated control
Method in brief: as §1

[11] = system: Blumeria graminis f. sp. tritici (Erysiphe graminis f. sp. tritici); experiment: Blumeria graminis f. sp. tritici/Wheat/Leaf Disc Preventative (Powdery Mildew on Wheat); assay type: in vivo; details: foliar, wheat leaf disc preventative, compared to untreated control
Method in brief: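 Wheat cv. Kanzler leaf segments on agar sprayed with formulated compound, inoculated with powdery mildew 1 day later and held at 20° C, 60% rh (24 h dark, then 12 h light/12 h dark). Percent disease control versus untreated scored 6-8 days after application.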

Pyrenophora teres = experiment: Pyrenophora teres/Barley/Leaf Disc Preventative (Net Blotch); assay type: in vivo; details: foliar, 200 ppm, barley leaf disc preventative, compared to untreated control, read-out: control of Pyrenophora teres
Method in brief: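 Formulated compound, diluted in water, sprayed onto barley cv. Hasso leaf segments on agar; spore suspension inoculation followed 2 days after application. Results expressed as percentage disease control.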

[12] = Photostability assay (Atlas Suntest); assay type: physicochemical; details: Suntest 750 W/m^2, spotted on microscope slides
Description: The testing method to measure the photostability data of each compound in table is D1 is as specifically described below. The objective of the photostability assay was to determine the stability of the individual test compounds in a strictly controlled and reproducible environment allowing a comparison of their photostability.
Method: Compounds were dissolved in methanol (HPLC grade) to give 1 g/L stock solutions. Compound stock solution (2 μl) was spotted onto microscope slides in a 3D printed holder and put into the Atlas Suntest. The spectral output power of the Suntest was set to 750 W/m^2, which is considered typical of the daily maximum (noon) irradiance level on a very bright British Summer day. At specific time points slides were removed from the Suntest and placed in 4D vials. Wash solvent made up of 50:40:10 H2O:MeCN:THF (1 mL) is then added to the vials and whirlimixed. The resulting solution is then subsampled to an HPLC vial to be analysed. A Waters UPLC system with Photodiode Array was used with a Waters reverse phase column (BEH C18, 100×2.1 mm×1.7 μm) and acetonitrile (HPLC grade) acidified water (0.2% formic acid) mobile phase at a flow rate of 0.6 mL/min. Peak detection was at the optimum wavelength and peak areas were used for quantification
Initial and subsequent measurements of peak area attributable to the test compound were used to provide a % parent remaining at 3 hours.

[13] = foliar, soybean leaf disc preventative, compared to untreated control, read-out: control of Phakopsora pachyrhizi

SMILES	pest or weed control at 200 ppm (Alternaria solani) [%]	pest or weed control at 200 ppm (Plasmopara viticola) [%]	pest or weed control at 200 ppm [1] [%]	inhibition of growth at 20 ppm [2] [%]	pest or weed control at 200 ppm (Phytophthora infestans) [%]	pest or weed control at 200 ppm [3] [%]	melting point [°C]	pest or weed control at 200 ppm (Phakopsora pachyrhizi; [13]) [%]	inhibition of growth at 20 ppm [4] [%]	inhibition of growth at 20 ppm [5] [%]	inhibition of growth at 20 ppm [6] [%]	inhibition of growth at 20 ppm [7] [%]	pest or weed control at 200 ppm [8] [%]	pest or weed control at 200 ppm [9] [%]	inhibition of growth at 20 ppm [10] [%]	pest or weed control at 200 ppm [11] [%]	pest or weed control at 200 ppm (Pyrenophora teres) [%]	% Parent Remaining @ 3 hrs [12] [%]	also measured
CO/C=C(\Oc1cc(-n2ccc(C(C)=NOC)n2)ccc1C)C(=O)OC [Compound E-30, methyl (Z)-3-methoxy-2-[5-[3-(N-methoxy-C-methyl-carbonimidoyl)pyrazol-1-yl]-2-methyl-phenoxy]prop-2-enoate]	≥ 80	≥ 80	≥ 80	≥ 80	≥ 80	≥ 80	130 to 133	≥ 50	≥ 80	≥ 80	≥ 80	≥ 80	≥ 80	≥ 80	≥ 80				
CO/C=C(\Oc1cc(C)cc(-n2ccc(C(F)(F)F)n2)c1)C(=O)OC [Compound E-34, methyl (Z)-3-methoxy-2-[3-methyl-5-[3-(trifluoromethyl)pyrazol-1-yl]phenoxy]prop-2-enoate]	≥ 80	≥ 80	≥ 80	≥ 80	≥ 80	≥ 80			≥ 80	≥ 80	≥ 80	≥ 80			≥ 80	≥ 80	≥ 80		
CO/C=C(\Oc1cc(-n2ccc(C3=CCCCC3)n2)ccc1C)C(=O)OC [Compound E-39, methyl (Z)-2-[5-[3-(cyclohexen-1-yl)pyrazol-1-yl]-2-methyl-phenoxy]-3-methoxy-prop-2-enoate]	≥ 80	≥ 80	≥ 80	≥ 80	≥ 80	≥ 80	108 to 110		≥ 80	≥ 80	≥ 80	≥ 80		≥ 80	≥ 80	≥ 80	≥ 80		
CO/C=C(\Oc1cc(-n2cc(C(C)C)cn2)ccc1C)C(=O)OC [Compound E-57, methyl (Z)-2-[5-(4-isopropylpyrazol-1-yl)-2-methyl-phenoxy]-3-methoxy-prop-2-enoate]	≥ 80	≥ 80	≥ 80	≥ 80	≥ 80	≥ 80		≥ 50	≥ 80	≥ 80	≥ 80	≥ 80	≥ 80	≥ 80	≥ 80	≥ 80			
CO/C=C(\Oc1cc(-n2cc(C3CCCC3)cn2)ccc1C)C(=O)OC [Compound E-58, methyl (Z)-2-[5-(4-cyclopentylpyrazol-1-yl)-2-methyl-phenoxy]-3-methoxy-prop-2-enoate]	≥ 80	≥ 80	≥ 80	≥ 80	≥ 80	≥ 80		≥ 50	≥ 80	≥ 80	≥ 80	≥ 80	≥ 80	≥ 80	≥ 80	≥ 80			
CO/C=C(\Oc1cc(-n2ccc(OC(C)C)n2)ccc1C)C(=O)OC [Compound E-70, methyl (Z)-2-[5-(3-isopropoxypyrazol-1-yl)-2-methyl-phenoxy]-3-methoxy-prop-2-enoate]	≥ 80	≥ 80	≥ 80		≥ 80		94 to 97			≥ 80	≥ 80	≥ 80	≥ 80		≥ 80	≥ 80	≥ 80	25	
CO/C=C(\Oc1cc(-n2ccc(C3CCC3)n2)ccc1C)C(=O)OC [Compound E-88, methyl (Z)-2-[5-(3-cyclobutylpyrazol-1-yl)-2-methyl-phenoxy]-3-methoxy-prop-2-enoate]	≥ 80	≥ 80	≥ 80	≥ 80	≥ 80		91 to 94			≥ 80	≥ 80	≥ 80	≥ 80		≥ 80	≥ 80		34	
CO/C=C(\Oc1cc(-n2ccc(CC(C)C)n2)ccc1C)C(=O)OC [Compound E-90, methyl (Z)-2-[5-(3-isobutylpyrazol-1-yl)-2-methyl-phenoxy]-3-methoxy-prop-2-enoate]		≥ 80	≥ 80	≥ 80	≥ 80		76 to 80			≥ 80	≥ 80	≥ 80	≥ 80		≥ 80	≥ 80		42	
CO/C=C(\Oc1cccc(-n2cccc2)c1)C(=O)OC [Compound X-1, reference compound]																		9	pest or weed control at 0.6 ppm (Phakopsora pachyrhizi; Phakopsora pachyrhizi (Soybean rust), 0.6 ppm): 0%; pest or weed control at 2 ppm (Phakopsora pachyrhizi; Phakopsora pachyrhizi (Soybean rust), 2 ppm): 0%; pest or weed control at 6 ppm (Phakopsora pachyrhizi; Phakopsora pachyrhizi (Soybean rust), 6 ppm): 0%; pest or weed control at 20 ppm (Phakopsora pachyrhizi; Phakopsora pachyrhizi (Soybean rust), 20 ppm): 10%; pest or weed control at 60 ppm (Phakopsora pachyrhizi; Phakopsora pachyrhizi (Soybean rust), 60 ppm): 10%; pest or weed control at 200 ppm (Phakopsora pachyrhizi; Phakopsora pachyrhizi (Soybean rust), read-out: control (%)): 45%
